Columns and labels:
[1] = test system: A2780 (ovarian cell line); assay: Cytotoxicity assay (propidium iodide assay), A2780; assay type: cell-based; conditions: Homo sapiens, A2780 cells, 48 h treatment
Experimental: (§1) The assay was designed as in the reference, Anticancer Drugs, 2002, 13, 1-8, the disclosure of which is incorporated by reference for the teaching of the assay.
(§2) Cells from cell lines A2780 (ovarian cell line) and PC3 (prostate cell line) (both from ATCC) were seeded at a density of 3000 cells/well in a white opaque 96-well plate. Following incubation at 37° C./5% CO2 for a period of 18-24 h, the cells were treated with various concentrations (stock solution was prepared in DMSO and subsequent dilutions were made in media as per ATCC guidelines) of the test compounds for a period of 48 h. At the end of treatment, the culture medium was discarded, the cells were washed with 1×PBS and 200 μl of 7 μg/ml propidium iodide was added to each well. The plates were frozen at −70° C. overnight. For analysis, the plates were warmed to RT, allowed to thaw and were read in PoleStar fluorimeter with the fluorescence setting. The percentage of viable cells in the non-treated set of wells was considered to be 100 and the percentage viability following treatment was calculated accordingly. IC50 values were calculated from graphs plotted using these percentages.

[2] = test system: PC3 (prostate cell line); assay: Cytotoxicity assay (propidium iodide assay), PC3; assay type: cell-based; conditions: Homo sapiens, PC-3, PC3 cells, 48 h treatment
Experimental: as §1, §2

SMILES: COc1ccc(-n2c(=NC#N)n(C)c3cnc4ccc(-c5cnc6ccccc6c5)cc4c32)c(OC)c1 [Example 100, N-(1-(2,4-dimethoxyphenyl)-3-methyl-8-(quinolin-3-yl)-1H-imidazo[4,5-c]quinolin-2(3H)-ylidene)cyanamide]
- IC50 [1]: ≤ 0.5 µM
- IC50 [2]: ≤ 0.5 µM

SMILES: Cn1c(=NC#N)n(-c2ccc(C(C)(C)C#N)nc2)c2c3cc(-c4cccc(C(F)(F)F)c4)ccc3ncc21 [Example 69, N-(1-(6-(2-cyanopropan-2-yl)pyridin-3-yl)-3-methyl-8-(3-(trifluoromethyl)phenyl)-1H-imidazo[4,5-c]quinolin-2(3H)-ylidene)cyanamide]
- inhibition at 1 µM [1]: ≥ 70%
- inhibition at 1 µM [2]: 30 to 70%

SMILES: COc1ncc(-c2ccc3ncc4c(c3c2)n(-c2ccc(C(C)(C)C#N)nc2)c(=NC#N)n4C)c(OC)n1 [Example 55, N-(1-(6-(2-cyanopropan-2-yl)pyridin-3-yl)-8-(2,4-dimethoxypyrimidin-5-yl)-3-methyl-1H-imidazo[4,5-c]quinolin-2(3H)-ylidene)cyanamide]
- inhibition at 1 µM [1]: ≥ 70%
- inhibition at 1 µM [2]: 30 to 70%

SMILES: COc1ncc(-c2ccc3ncc4c(c3c2)n(-c2ccc(C(C)(C)C#N)cc2)c(=NC#N)n4C)cc1NS(=O)(=O)c1ccccc1 [Example 124, N-(5-(2-(cyanoimino)-1-(4-(2-cyanopropan-2-yl)phenyl)-3-methyl-2,3-dihydro-1H-imidazo[4,5-c]quinolin-8-yl)-2-methoxypyridin-3-yl)benzenesulfonamide]
- inhibition at 1 µM [1]: ≥ 70%
- inhibition at 1 µM [2]: ≥ 70%

SMILES: Cn1c(=NC#N)n(-c2ccc(C(C)(C)C#N)cc2)c2c3cc(-c4cnc(N)c(C(F)(F)F)c4)ccc3ncc21 [Example 6, N-(8-(6-amino-5-(trifluoromethyl)pyridin-3-yl)-1-(4-(2-cyanopropan-2-yl)phenyl)-3-methyl-1H-imidazo[4,5-c]quinolin-2(3H)-ylidene)cyanamide]
- IC50 [1]: ≤ 0.5 µM
- IC50 [2]: ≤ 0.5 µM

SMILES: COc1ccc(-n2c(=NC#N)n(C)c3cnc4ccc(-c5ccc(C)cc5)cc4c32)cn1 [Example 44, N-(1-(6-methoxypyridin-3-yl)-3-methyl-8-p-tolyl-1H-imidazo[4,5-c]quinolin-2(3H)-ylidene)cyanamide]
- inhibition at 1 µM [1]: 30 to 70%
- inhibition at 1 µM [2]: < 30%

SMILES: CC(=O)N(C(C)=O)c1ncc(-c2ccc3ncc4c(c3c2)n(-c2ccc(C(C)(C)C#N)cc2)c(=NC#N)n4C)cc1C(F)(F)F [Example 131, N-acetyl-N-(5-(2-(cyanoimino)-1-(4-(2-cyanopropan-2-yl)phenyl)-3-methyl-2,3-dihydro-1H-imidazo[4,5-c]quinolin-8-yl)-3-(trifluoromethyl)pyridin-2-yl)acetamide]
- inhibition at 1 µM [1]: 30 to 70%
- inhibition at 1 µM [2]: 30 to 70%

SMILES: Cn1c(=NC#N)n(-c2ccc(C(C)(C)C#N)nc2)c2c3cc(-c4ccc(F)cc4)ccc3ncc21 [Example 80, N-(1-(6-(2-cyanopropan-2-yl)pyridin-3-yl)-8-(4-fluorophenyl)-3-methyl-1H-imidazo[4,5-c]quinolin-2(3H)-ylidene)cyanamide]
- inhibition at 1 µM [1]: ≥ 70%
- inhibition at 1 µM [2]: 30 to 70%

SMILES: Cn1c(=NC#N)n(-c2ccc(C(C)(C)C#N)nc2)c2c3cc(-c4cccc5ccccc45)ccc3ncc21 [Example 82, N-(1-(6-(2-cyanopropan-2-yl)pyridin-3-yl)-3-methyl-8-(naphthalen-1-yl)-1H-imidazo[4,5-c]quinolin-2(3H)-ylidene)cyanamide]
- inhibition at 1 µM [1]: 30 to 70%
- inhibition at 1 µM [2]: < 30%

SMILES: COc1cc(OC)cc(-n2c(=NC#N)n(C)c3cnc4ccc(-c5cnc(OC)c(N)c5)cc4c32)c1 [Example 99, N-(8-(5-amino-6-methoxypyridin-3-yl)-1-(3,5-dimethoxyphenyl)-3-methyl-1H-imidazo[4,5-c]quinolin-2(3H)-ylidene)cyanamide]
- IC50 [1]: ≤ 0.5 µM
- IC50 [2]: 0.5 to 2 µM

SMILES: COc1ncc(-c2ccc3ncc4c(c3c2)n(-c2ccc(C(C)(C)C#N)nc2)c(=NC#N)n4C)cc1NS(C)(=O)=O [Example 126, N-(5-(2-(cyanoimino)-1-(6-(2-cyanopropan-2-yl)pyridin-3-yl)-3-methyl-2,3-dihydro-1H-imidazo[4,5-c]quinolin-8-yl)-2-methoxypyridin-3-yl)methane sulfonamide]
- IC50 [1]: ≤ 0.5 µM
- IC50 [2]: ≤ 0.5 µM

SMILES: COc1ccc(-n2c(=NC#N)n(C)c3cnc4ccc(-c5cnc(N)c(C(F)(F)F)c5)cc4c32)c(Cl)n1 [Example 4, N-(8-(6-amino-5-(trifluoromethyl)pyridin-3-yl)-1-(2-chloro-6-methoxypyridin-3-yl)-3-methyl-1H-imidazo[4,5-c]quinolin-2(3H)-ylidene)cyanamide]
- IC50 [1]: ≤ 0.5 µM
- IC50 [2]: ≤ 0.5 µM

SMILES: Cn1c(=NC#N)n(-c2ccc(OC(F)(F)F)cc2)c2c3cc(-c4cccnc4)ccc3ncc21 [Example 108, N-(3-methyl-8-(pyridin-3-yl)-1-(4-(trifluoromethoxy)phenyl)-1H-imidazo[4,5-c]quinolin-2(3H)-ylidene)cyanamide]
- IC50 [1]: ≤ 0.5 µM
- IC50 [2]: 0.5 to 2 µM

SMILES: COc1ccc(-n2c(=NC#N)n(C)c3cnc4ccc(-c5cncc6ccccc56)cc4c32)cn1 [Example 35, N-(8-(isoquinolin-4-yl)-1-(6-methoxypyridin-3-yl)-3-methyl-1H-imidazo[4,5-c]quinolin-2(3H)-ylidene)cyanamide]
- inhibition at 1 µM [1]: ≥ 70%
- inhibition at 1 µM [2]: 30 to 70%

SMILES: Cn1c(=NC#N)n(-c2ccc(C(C)(C)C#N)nc2)c2c3cc(-c4ccc5ncccc5c4)ccc3ncc21 [Example 56, N-(1-(6-(2-cyanopropan-2-yl)pyridin-3-yl)-3-methyl-8-(quinolin-6-yl)-1H-imidazo[4,5-c]quinolin-2(3H)-ylidene)cyanamide]
- inhibition at 1 µM [1]: ≥ 70%
- inhibition at 1 µM [2]: 30 to 70%

SMILES: COc1cc(-c2ccc3ncc4c(c3c2)n(-c2ccc(C(C)(C)C#N)cc2)c(=NC#N)n4C)cc(OC)c1OC [Example 88, N-(1-(4-(2-cyanopropan-2-yl)phenyl)-3-methyl-8-(3,4,5-trimethoxyphenyl)-1H-imidazo[4,5-c]quinolin-2(3H)-ylidene)cyanamide]
- inhibition at 1 µM [1]: ≥ 70%
- inhibition at 1 µM [2]: 30 to 70%

SMILES: COc1ncc(-c2ccc3ncc4c(c3c2)n(-c2ccc(OC(F)(F)F)cc2)c(=NC#N)n4C)cc1N [Example 106, N-(8-(5-amino-6-methoxypyridin-3-yl)-3-methyl-1-(4-(trifluoromethoxy)phenyl)-1H-imidazo[4,5-c]quinolin-2(3H)-ylidene)cyanamide]
- IC50 [1]: ≤ 0.5 µM
- IC50 [2]: ≤ 0.5 µM

SMILES: COc1ncc(-c2ccc3ncc4c(c3c2)n(-c2ccc(C(C)(C)C#N)cc2)c(=NC#N)n4C)cc1N [Example 84, N-(8-(5-amino-6-methoxypyridin-3-yl)-1-(4-(2-cyanopropan-2-yl)phenyl)-3-methyl-1H-imidazo[4,5-c]quinolin-2(3H)-ylidene)cyanamide]
- inhibition at 1 µM [1]: ≥ 70%
- inhibition at 1 µM [2]: ≥ 70%

SMILES: Cn1c(=NC#N)n(-c2ccc(C(C)(C)C#N)cc2)c2c3cc(-c4ccc5cc[nH]c5c4)ccc3ncc21 [Example 94, N-(1-(4-(2-cyanopropan-2-yl)phenyl)-8-(1H-indol-6-yl)-3-methyl-1H-imidazo[4,5-c]quinolin-2(3H)-ylidene)cyanamide]
- IC50 [1]: ≤ 0.5 µM
- IC50 [2]: ≤ 0.5 µM

SMILES: COc1ccccc1-c1ccc2ncc3c(c2c1)n(-c1ccc(C(C)(C)C#N)nc1)c(=NC#N)n3C [Example 53, N-(1-(6-(2-cyanopropan-2-yl)pyridin-3-yl)-8-(2-methoxyphenyl)-3-methyl-1H-imidazo[4,5-c]quinolin-2(3H)-ylidene)cyanamide]
- inhibition at 1 µM [1]: 30 to 70%
- inhibition at 1 µM [2]: < 30%

SMILES: CC(=O)N(C(C)=O)c1ncc(-c2ccc3ncc4c(c3c2)n(-c2ccc(C(C)(C)C#N)nc2)c(=NC#N)n4C)cc1C(F)(F)F [Example 132, N-acetyl-N-(5-(2-(cyanoimino)-1-(6-(2-cyanopropan-2-yl)pyridin-3-yl)-3-methyl-2,3-dihydro-1H-imidazo[4,5-c]quinolin-8-yl)-3-(trifluoromethyl)pyridin-2-yl)acetamide]
- inhibition at 1 µM [1]: < 30%
- inhibition at 1 µM [2]: < 30%

SMILES: Cn1c(=NC#N)n(-c2ccc(OC(F)(F)F)cc2)c2c3cc(-c4cnc(N)c(C(F)(F)F)c4)ccc3ncc21 [Example 105, N-(8-(6-amino-5-(trifluoromethyl)pyridin-3-yl)-3-methyl-1-(4-(trifluoromethoxy)phenyl)-1H-imidazo[4,5-c]quinolin-2(3H)-ylidene)cyanamide]
- IC50 [1]: ≤ 0.5 µM
- IC50 [2]: ≤ 0.5 µM

SMILES: COc1ccc(-c2ccc3ncc4c(c3c2)n(-c2ccc(C(C)(C)C#N)nc2)c(=NC#N)n4C)cc1OC [Example 66, N-(1-(6-(2-cyanopropan-2-yl)pyridin-3-yl)-8-(3,4-dimethoxyphenyl)-3-methyl-1H-imidazo[4,5-c]quinolin-2(3H)-ylidene)cyanamide]
- inhibition at 1 µM [1]: ≥ 70%
- inhibition at 1 µM [2]: ≥ 70%

SMILES: Cn1c(=NC#N)n(-c2ccc(C(C)(C)C#N)cc2)c2c3cc(C4=CCN(C(=O)OC(C)(C)C)CC4)ccc3ncc21 [Example 89, tert-butyl 4-(2-(cyanoimino)-1-(4-(2-cyanopropan-2-yl)phenyl)-3-methyl-2,3-dihydro-1H-imidazo[4,5-c]quinolin-8-yl)-5,6-dihydropyridine-1(2H)-carboxylate]
- inhibition at 1 µM [1]: 30 to 70%
- inhibition at 1 µM [2]: < 30%

SMILES: COc1ccc(-n2c(=NC#N)n(C)c3cnc4ccc(-c5ccc(C#N)cc5)cc4c32)cn1 [Example 30, N-(8-(4-cyanophenyl)-1-(6-methoxypyridin-3-yl)-3-methyl-1H-imidazo[4,5-c]quinolin-2(3H)-ylidene)cyanamide]
- inhibition at 1 µM [1]: < 30%
- inhibition at 1 µM [2]: < 30%

Reference: patent US9062046B2, “Substituted imidazoquinoline derivatives as kinase inhibitors” (Piramal Enterprises Limited, priority 2011, dated 2015)
